Measurements from EP0183129A1, “Quinolonecarboxylic acid derivatives” (KYORIN PHARMACEUTICAL CO., LTD., priority 1984, dated 1986).
Structures can show the parent of a compound that is named as a salt. Where two headings read alike, the source gives them in different places.

Legend:
S. agalactiae 4342 = experiment: In vitro antibacterial activity, MIC (clinical isolates); format: cell-based; details: Streptococcus agalactiae; S. agalactiae 4342; 10^6 cells/ml; clinical isolate; read-out: MIC
E. coli ATCC 10536 = experiment: In vitro antibacterial activity, MIC (standard strain); format: cell-based; details: Escherichia coli, ATCC10536
S. pyogenes IID 692 = experiment: as above; format: cell-based; details: Streptococcus pyogenes, IID692; S. pyogenes IID 692; 10^6 cells/ml; standard strain; read-out: MIC
S. pneumoniae 2054 = experiment: In vitro antibacterial activity, MIC (clinical isolates); format: cell-based; details: Streptococcus pneumoniae; S. pneumoniae 2054; 10^6 cells/ml; clinical isolate; read-out: MIC
[1] = system: Alcaligenes faecalis 0104002; experiment: In vitro antibacterial activity, MIC (standard strain); format: cell-based; details: Alcaligenes faecalis, 0104002, Alcaligenes faecalis 0104002; 10^6 cells/ml; standard strain; read-out: MIC
[2] = system: Yersinia enterocolitica IID 981; experiment: as above; format: cell-based; details: IID981; Yersinia enterocolitica IID 981; 10^6 cells/ml; standard strain; read-out: MIC
[3] = system: Clostridium perfringens KYA 13123; experiment: microbe, parasite or virus in culture; format: cell-based; details: KYA13123
S. agalactiae 4049 = experiment: In vitro antibacterial activity, MIC (clinical isolates); format: cell-based; details: Streptococcus agalactiae; S. agalactiae 4049; 10^6 cells/ml; clinical isolate; read-out: MIC
S. pneumoniae 3227 = experiment: as above; format: cell-based; details: Streptococcus pneumoniae; S. pneumoniae 3227; 10^6 cells/ml; clinical isolate; read-out: MIC
[4] = system: Acinetobacter anitratus IID 876; experiment: In vitro antibacterial activity, MIC (standard strain); format: cell-based; details: Acinetobacter calcoaceticus, IID876, Acinetobacter anitratus IID 876; 10^6 cells/ml; standard strain; read-out: MIC
[5] = system: Morganella morganii IID 602; experiment: as above; format: cell-based; details: IID602; Morganella morganii IID 602; 10^6 cells/ml; standard strain; read-out: MIC
S. pyogenes 3130 = experiment: In vitro antibacterial activity, MIC (clinical isolates); format: cell-based; details: Streptococcus pyogenes, read-out: MIC
S. pyogenes 4340 = experiment: as above; format: cell-based; details: Streptococcus pyogenes; S. pyogenes 4340; 10^6 cells/ml; clinical isolate; read-out: MIC
B. fragilis 0558 = experiment: In vitro antibacterial activity, MIC (standard strain); format: cell-based, Bacteroides fragilis; details: Bacteroides fragilis, 0558, B. fragilis 0558; 10^6 cells/ml; standard strain; read-out: MIC
P. aeruginosa IFO 12689 = experiment: as above; format: cell-based, Pseudomonas aeruginosa; details: Pseudomonas aeruginosa, IFO12689; P. aeruginosa IFO 12689; 10^6 cells/ml; standard strain; read-out: MIC
S. agalactiae 4470 = experiment: In vitro antibacterial activity, MIC (clinical isolates); format: cell-based; details: Streptococcus agalactiae; S. agalactiae 4470; 10^6 cells/ml; clinical isolate; read-out: MIC
E. coli ML 4707 = experiment: In vitro antibacterial activity, MIC (standard strain); format: cell-based; details: Escherichia coli, ML4707
S. marcescens GN 7577 = experiment: as above; format: cell-based; details: Serratia marcescens, GN7577; S. marcescens GN 7577; 10^6 cells/ml; standard strain; read-out: MIC
[6] = system: Citrobacter freundii IID 976; experiment: as above; format: cell-based; details: IID976; Citrobacter freundii IID 976; 10^6 cells/ml; standard strain; read-out: MIC
[7] = system: Serratia marcescens IID 618; experiment: as above; format: cell-based; details: Serratia marcescens, IID618, Serratia marcescens IID 618; 10^6 cells/ml; standard strain; read-out: MIC
[8] = system: Proteus vulgaris IFO 3167; experiment: as above; format: cell-based; details: IFO3167; Proteus vulgaris IFO 3167; 10^6 cells/ml; standard strain; read-out: MIC
[9] = system: Streptococcus pyogenes S-8; experiment: as above; format: cell-based; details: S8; Streptococcus pyogenes S-8; 10^6 cells/ml; standard strain; read-out: MIC
S. pyogenes 3102 = experiment: In vitro antibacterial activity, MIC (clinical isolates); format: cell-based; details: Streptococcus pyogenes; S. pyogenes 3102; 10^6 cells/ml; clinical isolate; read-out: MIC
S. agalactiae 4368 = experiment: as above; format: cell-based; details: Streptococcus agalactiae; S. agalactiae 4368; 10^6 cells/ml; clinical isolate; read-out: MIC
S. faecalis 402 = experiment: as above; format: cell-based; details: Enterococcus faecalis; S. faecalis 402; 10^6 cells/ml; clinical isolate; read-out: MIC
S. pneumoniae 15 = experiment: as above; format: cell-based; details: Streptococcus pneumoniae; S. pneumoniae 15; 10^6 cells/ml; clinical isolate; read-out: MIC
P. mirabilis IID 994 = experiment: In vitro antibacterial activity, MIC (standard strain); format: cell-based; details: Proteus mirabilis, IID994; P. mirabilis IID 994; 10^6 cells/ml; standard strain; read-out: MIC
K. pneumoniae 1-220S = experiment: as above; format: cell-based; details: Klebsiella pneumoniae, 1220S; K. pneumoniae 1-220S; 10^6 cells/ml; standard strain; read-out: MIC
[10] = system: Staphylococcus aureus 209 P; experiment: as above; format: cell-based
[11] = system: Escherichia coli NIHJ JC-2; experiment: as above; format: cell-based; details: Escherichia coli
S. pneumoniae 2950 = experiment: In vitro antibacterial activity, MIC (clinical isolates); format: cell-based; details: Streptococcus pneumoniae; S. pneumoniae 2950; 10^6 cells/ml; clinical isolate; read-out: MIC
[12] = E. coli ATCC 10536, 10^6 cells/ml, standard strain, read-out: MIC
[13] = E. coli ML 4707, 10^6 cells/ml, standard strain, read-out: MIC
[14] = Staphylococcus aureus 209 P, 10^6 cells/ml, standard strain, read-out: MIC
[15] = NIHJJC2, Escherichia coli NIHJ JC-2, 10^6 cells/ml, standard strain, read-out: MIC

Compound | MIC (S. agalactiae 4342) [µg/mL] | MIC (S. pyogenes IID 692) [µg/mL] | MIC (S. pneumoniae 2054) [µg/mL] | MIC [1] [µg/mL] | MIC [2] [µg/mL] | MIC [3] [µg/mL] | MIC (S. agalactiae 4049) [µg/mL] | MIC [4] [µg/mL] | MIC [5] [µg/mL] | MIC (S. pyogenes 3130) [µg/mL] | MIC (S. pyogenes 4340) [µg/mL] | MIC (B. fragilis 0558) [µg/mL] | MIC (P. aeruginosa IFO 12689) [µg/mL] | MIC (S. marcescens GN 7577) [µg/mL] | MIC [6] [µg/mL] | MIC [7] [µg/mL] | MIC [8] [µg/mL] | MIC [9] [µg/mL] | MIC (S. pyogenes 3102) [µg/mL] | MIC (S. agalactiae 4368) [µg/mL] | further results
CNCC1CCN(c2c(F)cc3c(=O)c(C(=O)O)cn(C4CC4)c3c2Cl)C1 (stereo not drawn) [Example 12, 8-Chloro-l-cyclopropyl-6-fluoro-1,4-dihydro-7-(3-methylaminomethyl-1-pyrrolidinyl)-4-oxo-3-quinolinecarboxylic acid hydrochloride] | 0.05 | 0.05 | 0.05 | 0.39 | 0.05 | 0.1 | 0.05 | 0.05 | 0.1 | 0.05 | 0.05 | 0.1 | 0.78 | 0.78 | 0.05 | 0.1 | 0.025 | 0.05 | 0.05 | 0.05 | MIC (E. coli ATCC 10536; [12]): 0.025 µg/mL; MIC (S. pneumoniae 3227): 0.05 µg/mL; MIC (S. agalactiae 4470): 0.05 µg/mL; MIC (E. coli ML 4707; [13]): 0.025 µg/mL; MIC (S. faecalis 402): 0.1 µg/mL; MIC (S. pneumoniae 15): 0.05 µg/mL; MIC (P. mirabilis IID 994): 0.025 µg/mL; MIC (K. pneumoniae 1-220S): 0.05 µg/mL; MIC [10, 14]: 0.0125 µg/mL; MIC [11, 15]: 0.025 µg/mL
NCC1CCN(c2c(F)cc3c(=O)c(C(=O)O)cn(C4CC4)c3c2Cl)C1 (stereo not drawn) [Example 14, 8-Chloro-l-cyclopropyl-6-fluoro-l,4-dihydro-7-(3-aminomethyl-l-pyrrolidinyl)-4-oxo-3-quinolinecarboxylic acid hydrochloride] | 0.05 | 0.05 | 0.05 | 0.2 | 0.05 | 0.05 | 0.05 | 0.05 | 0.05 | 0.025 | 0.05 | 0.05 | 0.39 | 0.39 | 0.025 | 0.05 | 0.025 | 0.05 | 0.025 | 0.05 | MIC (E. coli ATCC 10536): 0.0125 µg/mL; MIC (S. pneumoniae 3227): 0.05 µg/mL; MIC (S. agalactiae 4470): 0.05 µg/mL; MIC (E. coli ML 4707): 0.0125 µg/mL; MIC (S. faecalis 402): 0.05 µg/mL; MIC (S. pneumoniae 15): 0.025 µg/mL; MIC (P. mirabilis IID 994): 0.025 µg/mL; MIC (K. pneumoniae 1-220S): 0.05 µg/mL; MIC ([10]; Staphylococcus aureus, 209P): 0.0125 µg/mL; MIC ([11]; NIHJJC2): 0.0125 µg/mL
CNCC1CCN(c2c(F)cc3c(=O)c(C(=O)O)cn(C4CC4)c3c2F)C1 (stereo not drawn) [Example 8, 1-Cyclopropyl-6,8-difluoro-1,4-dihydro-7-(3-methylaminomethyl-l-pyrrolidinyl)-4-oxo-3-quinolinecarboxylic acid hydrochloride] | 0.2 | 0.05 | 0.05 | 0.39 | 0.1 | 0.39 | 0.2 | 0.1 | 0.2 | 0.05 | 0.05 | 0.39 | 1.56 | 1.56 | 0.025 | 0.2 | 0.025 | 0.05 | 0.05 | 0.1 | MIC (E. coli ATCC 10536; [12]): 0.025 µg/mL; MIC (E. coli ML 4707; [13]): 0.025 µg/mL; MIC (S. faecalis 402): 0.2 µg/mL; MIC (S. pneumoniae 15): 0.05 µg/mL; MIC (P. mirabilis IID 994): 0.05 µg/mL; MIC (K. pneumoniae 1-220S): 0.1 µg/mL; MIC [10, 14]: 0.025 µg/mL; MIC [11, 15]: 0.025 µg/mL; MIC (S. pneumoniae 2950): 0.1 µg/mL
